Test results reported in patent publication US20240002127A1 (priority 2020, published 2024).

How the values were obtained:
[1] = format: in vitro ADME, mice, rats, monkeys, humans; conditions: mouse, rat, monkey, human
Experimental: In vitro metabolism of ALC-0315 and ALC-0159 was evaluated in blood, liver microsomes, S9 fractions, and hepatocytes from mice, rats, monkeys, and humans. In vivo metabolism was examined in rat plasma, urine, faeces, and liver samples from the PK study. […] ALC-0315 and ALC-0159 are apparently metabolised by hydrolytic metabolism of the ester and amide functionalities, respectively, and this hydrolytic metabolism is observed across the species evaluated.

[2] = format: in vivo, rats; conditions: rat
Experimental: A single dose PK study of ALC-0315 and […] following intravenous (IV) bolus injection of a nanoparticle formulation in rats was conducted to assess the PK and metabolism of lipid excipients ALC-0315 and ALC-0159.

[3] = target: human ACE2 peptidase domain (amino acids 1-615 of human ACE2 with C-terminal His-10 and Avi tags) (human) (UniProt Q9BYF1)
UniProt Q9BYF1, sequence (Q9BYF1 18-615 limits assumed): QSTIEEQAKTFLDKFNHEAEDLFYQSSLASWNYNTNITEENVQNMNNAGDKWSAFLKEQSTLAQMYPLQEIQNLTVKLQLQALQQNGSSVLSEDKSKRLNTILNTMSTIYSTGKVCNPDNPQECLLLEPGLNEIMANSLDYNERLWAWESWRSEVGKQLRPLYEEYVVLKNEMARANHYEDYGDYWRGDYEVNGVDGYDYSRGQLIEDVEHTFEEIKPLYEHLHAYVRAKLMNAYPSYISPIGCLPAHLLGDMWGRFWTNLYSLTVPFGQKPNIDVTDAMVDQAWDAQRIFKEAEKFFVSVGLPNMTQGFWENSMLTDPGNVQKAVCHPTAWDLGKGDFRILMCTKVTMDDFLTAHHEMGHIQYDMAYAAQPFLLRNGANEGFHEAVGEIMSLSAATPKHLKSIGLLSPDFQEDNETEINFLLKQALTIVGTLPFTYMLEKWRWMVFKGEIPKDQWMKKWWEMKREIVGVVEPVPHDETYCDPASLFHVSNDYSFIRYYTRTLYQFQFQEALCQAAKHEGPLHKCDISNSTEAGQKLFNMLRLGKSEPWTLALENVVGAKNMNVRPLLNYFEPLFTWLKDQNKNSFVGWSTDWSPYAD

Compound | metabolism in vitro and in vivo [1] | eliminated unchanged in faeces [2] | apparent terminal t½ in plasma and liver ([2]; IV) [h] | drop of concentration in liver ([2]; IV, over 2 weeks) [fold] | drop of concentration in plasma ([2]; IV, over 2 weeks) | Kd [3] [pM] | fold difference of KD against the reported KD of monomeric RBD [3] [fold]
CCCCCCCCC(CCCCCC)C(=O)OCCCCCCN(CCCCO)CCCCCCOC(=O)C(CCCCCC)CCCCCCCC (stereo not shown) [ALC-0315, ((4-hydroxybutyl)azanediyl)bis(hexane-6,1-diyl)bis(2-hexyldecanoate)] | relatively slowly | little to no unchanged material | 140 to 190 | ~4 | approximately 7000 fold | – | –
RBD-foldon trimer (trimerised SARS-CoV-2 spike receptor-binding domain fused to T4 fibritin foldon, (other; other documents disagree on this pair) | – | – | – | – | – | 5 | 1000
